# Source: publication PMC3367954, “The Influence of pH on the Specific Adhesion of P Piliated Escherichia coli” (PLoS ONE, 2012)
# Biological target: T1, PapG adhesin (isolated P pili) (Escherichia coli, UniProt P13720)
# T1 construct: gene papGI; native PapG at the tip of isolated P pili (rod of PapA), sheared from E. coli HB101/pPAP5, ammonium sulfate precipitated; PapG not purified separately
# Assay: surface plasmon resonance (Biacore X100), isolated P pili over immobilised galabiose-BSA
# Type: binding
# Details: galabiose as BSA conjugate (about 30 per BSA) on CM3 chip, BSA reference subtracted; citrate-phosphate buffer pH 3.5-8.0, 25 °C; multivalent
# T1 sequence (P13720 22-335): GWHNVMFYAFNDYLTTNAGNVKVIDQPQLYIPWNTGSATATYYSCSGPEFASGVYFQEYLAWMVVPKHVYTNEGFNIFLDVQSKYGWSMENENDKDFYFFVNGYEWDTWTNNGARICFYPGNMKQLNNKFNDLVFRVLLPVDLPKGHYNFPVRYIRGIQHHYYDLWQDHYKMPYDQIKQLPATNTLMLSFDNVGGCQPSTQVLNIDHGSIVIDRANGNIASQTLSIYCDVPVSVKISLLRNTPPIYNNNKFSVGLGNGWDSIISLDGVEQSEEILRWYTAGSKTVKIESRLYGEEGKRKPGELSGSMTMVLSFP
compound,measurement,value
"OC[C@H]1O[C@H](O[C@@H]2[C@H](O)[C@@H](O)C(O)O[C@@H]2CO)[C@H](O)[C@@H](O)[C@H]1O (stereo partly drawn) [galabiose, α-D-Gal-(1–4)-β-D-Gal]","surface plasmon resonance (Biacore X100), isolated P pili over immobilised galab",the binding stability of both isolated pili and bacteria to galabiose-coated surfaces was high
